PMC6648477 (ACS Omega, 2019)

The molecules below were run against double His-TEV-hMcl-1 (Homo sapiens, UniProt Q07820) (assay: SPR direct binding, Mcl-1). Details: not given.
double His-TEV-hMcl-1, sequence (Q07820 171-327 limits assumed): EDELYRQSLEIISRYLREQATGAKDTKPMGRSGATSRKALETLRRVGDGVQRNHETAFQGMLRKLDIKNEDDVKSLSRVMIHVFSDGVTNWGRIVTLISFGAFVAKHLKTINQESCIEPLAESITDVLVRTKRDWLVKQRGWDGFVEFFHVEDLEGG

Kd [µM]	Molecule
450	O=C(O)c1csc(C2CN(Cc3ccccc3)c3ccccc3O2)n1 (stereo not drawn) [Compound 25]
140	O=C(O)c1nc(C2COc3ccccc3O2)sc1Cc1ccccc1 (stereo not drawn) [Compound 22]

The molecules below were run against hMcl-1 (Homo sapiens, UniProt Q07820) (assay: FP assay, displacement of F-Puma from hMcl-1). Details: not given.
Format: binding

hMcl-1, sequence (Q07820 171-327 limits assumed): as above

Molecule	Ki [µM]
O=C(O)c1csc([C@@H]2CN(Cc3ccccc3)c3ccccc3O2)n1 [Compound 27]	40
O=C(O)c1csc(C2CNc3ccccc3O2)n1 (stereo not drawn) [Compound 23]	500
O=C(O)c1nc(C2COc3ccccc3O2)sc1Cc1ccccc1 (stereo not drawn) [Compound 22]	40

Second part, the molecule after the results:

Ki [µM]	Molecule
40	O=C(O)c1csc(C2CN(Cc3ccccc3)c3ccccc3O2)n1 (stereo not drawn) [Compound 25]
30	O=C(O)c1csc([C@H]2CN(Cc3ccccc3)c3ccccc3O2)n1 [Compound 26]
20	CCN1CC(c2nc(C(=O)O)cs2)Oc2ccccc21 (stereo not drawn) [Compound 24]

The molecules below were run against mMcl-1 (Mus musculus, UniProt P97287) (assay: 1H,15N HSQC NMR titration, Mcl-1). Details: Mcl-1 Kd by 1H,15N HSQC NMR (N).
Format: binding

mMcl-1, sequence (P97287 152-308 limits assumed): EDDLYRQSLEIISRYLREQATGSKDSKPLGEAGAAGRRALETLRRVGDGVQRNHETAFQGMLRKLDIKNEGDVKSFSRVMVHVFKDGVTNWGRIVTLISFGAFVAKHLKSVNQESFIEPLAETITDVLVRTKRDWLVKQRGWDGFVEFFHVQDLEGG

Molecule	Kd [µM]
O=C(O)c1csc([C@@H]2CN(Cc3ccccc3)c3ccccc3O2)n1 [Compound 27]	140
O=C(O)c1csc(C2CNc3ccccc3O2)n1 (stereo not drawn) [Compound 23]	360
O=C(O)c1nc(C2COc3ccccc3O2)sc1Cc1ccccc1 (stereo not drawn) [Compound 22]	85

Other lines, results leading:

Kd [µM]	Molecule
40	O=C(O)c1csc(C2CN(Cc3ccccc3)c3ccccc3O2)n1 (stereo not drawn) [Compound 25]
110	O=C(O)c1csc([C@H]2CN(Cc3ccccc3)c3ccccc3O2)n1 [Compound 26]
220	CCN1CC(c2nc(C(=O)O)cs2)Oc2ccccc21 (stereo not drawn) [Compound 24]

Each molecule was assayed against hBcl-2 (Homo sapiens, UniProt P10415) (assay: FP assay, displacement of F-Puma from hBcl-2). Details: not given.
Format: binding

hBcl-2, sequence (P10415 1-207): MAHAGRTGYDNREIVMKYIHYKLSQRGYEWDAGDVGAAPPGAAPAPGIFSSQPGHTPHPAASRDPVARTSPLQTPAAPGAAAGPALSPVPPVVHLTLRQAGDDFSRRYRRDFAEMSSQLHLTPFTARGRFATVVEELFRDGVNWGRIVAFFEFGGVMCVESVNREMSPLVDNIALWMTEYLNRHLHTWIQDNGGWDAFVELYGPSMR

Ki [µM]	Molecule
500	CCN1CC(c2nc(C(=O)O)cs2)Oc2ccccc21 (stereo not drawn) [Compound 24]
800	O=C(O)c1csc(C2CN(Cc3ccccc3)c3ccccc3O2)n1 (stereo not drawn) [Compound 25]
80	O=C(O)c1nc(C2COc3ccccc3O2)sc1Cc1ccccc1 (stereo not drawn) [Compound 22]

Same assay, conditions: read-out: Bcl-2 eKi; FP assay; NM = not measurable at top concentration (2.5 mM or solubility limit)

Ki [µM]	Molecule
> 2500	O=C(O)c1csc([C@@H]2CN(Cc3ccccc3)c3ccccc3O2)n1 [Compound 27]
> 2500	O=C(O)c1csc(C2CNc3ccccc3O2)n1 (stereo not drawn) [Compound 23]
> 2500	O=C(O)c1csc([C@H]2CN(Cc3ccccc3)c3ccccc3O2)n1 [Compound 26]

The molecules below were run against Unmodified human Bcl-2 residues 1-207 (hBcl-2) (human, UniProt P10415 1-207) (assay: fluorescence polarisation). Details: not given.
Unmodified human Bcl-2 residues 1-207 (hBcl-2), sequence (P10415 1-207): as above

binding result	Molecule
binds	RGEEEQWAREIGAQLRRMADDLN [Puma peptide]
